For experiment [1], the target named is T1, TGR5 (Homo sapiens, UniProt Q8TDU6).
T1 construct: host or cells: CHO cells
T1 sequence (Q8TDU6 1-330): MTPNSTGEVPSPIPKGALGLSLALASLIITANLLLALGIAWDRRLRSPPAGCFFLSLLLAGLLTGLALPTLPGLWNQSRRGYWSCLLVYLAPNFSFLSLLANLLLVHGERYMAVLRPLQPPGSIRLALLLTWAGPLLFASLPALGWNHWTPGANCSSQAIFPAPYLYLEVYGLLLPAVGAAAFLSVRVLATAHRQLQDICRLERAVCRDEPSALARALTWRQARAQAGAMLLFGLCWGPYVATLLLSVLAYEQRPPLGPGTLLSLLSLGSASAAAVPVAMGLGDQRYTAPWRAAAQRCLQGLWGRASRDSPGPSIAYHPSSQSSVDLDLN
Briefly: TGR5 cAMP assay in CHO cells transfected with TGR5 (cAMP Hunter eXpress, Discover X). Format: cell-based. The note with it: % vs INT-767 10 µM as 100%.

Experiment [2] has as its system FXR. The note with it: cited from earlier work.
Experiment [3] has as its target T1, TGR5. Particulars: cited from earlier work.
The target of experiment [4] is T2, FXR (Homo sapiens, UniProt Q96RI1).
T2 construct: host or cells: CHO cells
T2 sequence (Q96RI1 1-486): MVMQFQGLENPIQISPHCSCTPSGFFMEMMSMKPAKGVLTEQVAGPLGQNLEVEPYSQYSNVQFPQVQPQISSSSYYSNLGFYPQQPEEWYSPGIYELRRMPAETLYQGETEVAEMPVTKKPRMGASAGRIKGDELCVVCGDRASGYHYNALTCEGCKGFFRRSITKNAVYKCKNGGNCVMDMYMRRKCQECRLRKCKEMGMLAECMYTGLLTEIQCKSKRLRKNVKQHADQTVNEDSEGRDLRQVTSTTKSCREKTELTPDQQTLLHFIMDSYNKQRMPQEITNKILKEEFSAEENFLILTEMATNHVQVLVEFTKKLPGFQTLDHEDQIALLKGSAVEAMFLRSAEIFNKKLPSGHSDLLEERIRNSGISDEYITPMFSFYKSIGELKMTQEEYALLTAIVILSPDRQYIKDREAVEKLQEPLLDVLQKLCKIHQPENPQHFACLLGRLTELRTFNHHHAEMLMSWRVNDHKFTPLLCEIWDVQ
Briefly: CHO cell-based FXR luciferase reporter assay (Indigo Biosciences). Particulars: % vs OCA 1 µM as 100%. (In general: In a reporter assay the amount or activity of a reporter protein is the signal.)

Molecules are shown by their SMILES. “And” between values parts separate entries of the source, which are not always exact repeats. Equal entries are not always repeated.

Regarding `Cc1cc2c(CN(C(=O)c3ccncc3C)c3ccc(F)cc3C)cccc2[nH]1` [Compound 8, reference compound], the “TGR5 Efficacy (%) (0.1 µM)” value at TGR5 [1] (0.1 µM) stood at 84.7%. At TGR5 [1], the “TGR5 Efficacy (%) (1 µM)” value was 84.7% and 66.1%. For the same molecule, the “Reported FXR activity (in words)” value with FXR [2] is listed as “no agonist or antagonist activity against FXR”. The “Reported TGR5 activity (in words)” value on TGR5 [3] is recorded as “TGR5 agonist”.
Consider `COc1ccc(C23CCC(CN(C(=O)c4ccncc4C)c4cc(Cl)cc(Cl)c4)(CC2)CC3)cc1Cl` [Compound 20v], for which, at FXR [4] (0.1 µM), the “FXR Efficacy (%) (0.1 µM)” value is 65.4%. Besides, the “FXR Efficacy (%) (1 µM)” value on FXR [4] (1 µM) was found to be 79.6%. In addition, the “TGR5 Efficacy (%) (1 µM)” value on TGR5 [1] was 33.5%.
